Where a name gives a salt, the structure may show the parent alone.
Tests used:
Jurkat cells = test: Cell cytotoxicity assay (assay r); assay type: cell-based, human; conditions: 24 hours
Protocol: 1×10^5 Jurkat cells (immortalised human T lymphocytes) are added to the appropriate number of wells of a 96 well plate in 100 μL of media (RPMI supplemented with 10% foetal bovine serum). 1 μL of DMSO control (final concentration 1.0% v/v) or test compound (final concentration 20, 5 or 1 μg/mL) is added to the wells and incubated at 37° C., 5% CO2. After 24 hours, the plate is centrifuged at 1200 rpm for 3 minutes and the supernatant discarded. Cells are then resuspended in 150 μL (final concentration 7.5 μg/mL) of propidium iodide (PI) in PBS and incubated at 37° C., 5% CO2 for 15 minutes. After 15 minutes, cells are analysed by flow cytometry (BD accuri) using the FL3 window. The % viability is calculated as the % of cells that are PI negative in the test wells normalised to the DMSO control.

Crohn's patients = conditions: transient, baseline by week 8; cited from earlier work
[1] = system: patients with severe Crohn's disease; conditions: over 8 weeks; cited from earlier work
[2] = system: Escherichia coli, WP2 uvrA; test: Bacterial reverse mutation screen (plate incorporation); conditions: for mutagenic effects (revertant numbers): presence and absence of S-9 mix
[3] = Stability of pharmaceutical formulations; assay type: physicochemical; conditions: for Purity (%) at week n = 4: 4 weeks
Protocol: The samples were sonicated to achieve clear solutions having the following properties: Osmolality (mOsm/kg): 310 (Na), 314 (HCl); pH: 7.00 (Na), 7.05 (HCl). 0.5 mL of the stock solutions were diluted to 1 mL with 20% DMSO in water & injected for purity analysis by HPLC. The remaining stock solutions were then split into aliquots of 0.5 mL in HPLC vials, and stored at various conditions in duplicate. Samples were stored at 5 and 25° C., before being analysed by HPLC at 1, 2 and 4 weeks. Separate samples were stored at 40° C. and analysed at 4 weeks.

[4] = system: eyes of albino New Zealand White rabbits; conditions: Phase 1, one treatment day, 0.1 and 1.0 mg/mL
LPS-stimulated rats = test: Endotoxin-induced uveitis in rats (assay vi); assay type: in vivo, rat; conditions: rats treated with intravitreal endotoxin LPS
Protocol: Male, Lewis rats (6-8 weeks old, Charles River UK Limited) are housed in cages of 3 at 19-21° C. with a 12 h light/dark cycle (07:00/19:00) and fed a standard diet of rodent chow and water ad libitum. Non-fasted rats are weighed, individually identified on the tail with a permanent marker, and receive a single intravitreal administration into the right vitreous humor (5 μL dose volume) of 100 ng/animal of LPS (Escherichia coli 0111:B4 prepared in PBS, Sigma Aldrich, UK) using a 32-gauge needle. Untreated rats are injected with PBS. Test compound or vehicle (4% polyoxyl 40 stearate, 4% mannitol in PBS (pH 7.4)) are administered by the topical route onto the right eye (10 μL) of animals 1 hour prior to LPS, at the time of LPS administration, and 1, 2 and 4 hours post LPS administration. Before administration, the solution to be administered is sonicated to ensure a clear solution. 6 hours after LPS dosing, animals are euthanized by overdose with pentobarbitone (via cardiac puncture) Immediately after euthanasia, 10 μL of aqueous humor is collected from the right eye of the rats by puncture of the anterior chamber using a 32 gauge needle under a surgical microscope. The aqueous humor is diluted in 20 μL of PBS and total cell counts are measured immediately using a Countess automated cell counter (Invitrogen). […]

[5] = system: Salmonella typhimurium, strains TA1535, TA1537, TA98 and TA100; test: Bacterial reverse mutation screen (plate incorporation); conditions: for limit of solubility in the mutation test: all strains; for limit of solubility in the mutation test / mutagenic effects (revertant numbers): presence and absence of S-9 mix; for toxicity to the bacteria (mean colony count): at 500-5000 μg/plate in some strains
non-mutant kinases = test: KinomeScan selectivity scores; assay type: binding; conditions: for KinomeScan Selectivity Score S(1): kinases with % Ctrl <1 / kinases tested; for KinomeScan Selectivity Score S(10): kinases with % Ctrl <10 / kinases tested; for kinase selectivity compared to the Reference Compound: KINOMEscan selectivity scores
Excerpt: These assays may be conducted by DiscoverX (formerly Ambit; San Diego, Calif.).

[6] = Hydrolytic stability study; assay type: physicochemical; conditions: 1 mg/mL; for % Parent Remaining: DMSO/water (3:1)
Protocol: Chemical stability of compounds of the invention was assessed in a mixture of DMSO and water (3:1) at a test compound concentration of 1 mg/mL.
General HPLC Procedure • Agilent, Waters X-Select C18, 2.5 μm, 4.6×30 mm column, 4 min method, 5-95% MeCN/water (0.1% formic acid). Flow rate 2.5 mL/min. Column Oven Temperature 40° C. Detection 254 nm.
Sample Preparation • A 1.0 mg sample of test compound was dissolved in 750 μL of DMSO. Water (250 μL) was added slowly, ensuring no precipitation occurred.
Recording Stability • A 50 μL aliquot of the test solution was removed and analysed in duplicate by 5 μL HPLC injections. The peak area for the test compound was recorded following manual integration of the corresponding UV trace. • The test solution was heated to 60° C., with stirring, and 50 μL aliquots removed for HPLC analysis at 5 and 24 h timepoints.

[7] = system: rheumatoid arthritis patients; conditions: cited from earlier work
[8] = 60° C., 24 h timepoint (1429-1450 min)

SMILES: COc1cc(Nc2cc(Oc3ccc(NC(=O)Nc4cc(C(C)(C)C)cc(NS(C)(=O)=O)c4OC)c4ccccc34)ccn2)ccc1C(=O)NC[C@@H]1O[C@H](CO)[C@@H](O)[C@H](O)[C@H]1O [17(co), 4-((4-((4-(3-(5-(tert-Butyl)-2-methoxy-3-(methylsulfonamido)phenyl)ureido)naphthalen-1-yl)oxy)pyridin-2-yl)amino)-2-methoxy-N-(((2S,3R,4R,5S,6R)-3,4,5-trihydroxy-6-(hydroxymethyl)tetrahydro-2H-pyran-2-yl)methyl)benzamide]
- % Viability at 1 μg/mL (Jurkat cells): 74.3%

SMILES: Cc1ccc(-n2nc(C(C)(C)C)cc2NC(=O)Nc2ccc(OCCN3CCOCC3)c3ccccc23)cc1 [BIRB796]
- clinical benefit (C-reactive protein levels) (Crohn's patients): improvement in C-reactive protein levels

SMILES: C/C(=N\N=C(N)N)c1cc(NC(=O)CCCCCCCCC(=O)Nc2cc(/C(C)=N/N=C(N)N)cc(/C(C)=N/N=C(N)N)c2)cc(/C(C)=N/N=C(N)N)c1.Cl.Cl.Cl.Cl [CNI-1493]
- clinical score [1]: significant improvement in clinical score

SMILES: COc1cc(Nc2cc(Oc3ccc(NC(=O)Nc4cc(C(C)(C)C)cc(NS(C)(=O)=O)c4OC)c4ccccc34)ccn2)ccc1C(=O)O [Example 1, 4-((4-((4-(3-(5-(tert-Butyl)-2-methoxy-3-(methylsulfonamido)phenyl)ureido)naphthalen-1-yl)oxy)pyridin-2-yl)amino)-2-methoxybenzoic acid]
- mutagenic effects (revertant numbers) [2]: absence of any mutagenic effects
- stability in solution ([3]; 1 mg/mL Na and HCl salts, 10 mM pH 7.2 phosphate buffer, 4.5% mannitol, 3% polyoxyl 40 stearate, 5° C., up to 4 weeks): stable
- ocular reactions versus vehicle controls [4]: no differences in the frequency, severity and incidence
- cellular infiltration (cell counts) in the eyes (LPS-stimulated rats): significantly and dose-dependently reduced
- cytokine IL-1β levels in anterior and posterior segments of the eyes (LPS-stimulated rats): significantly and dose-dependently reduced
- limit of solubility in the mutation test [5]: 1500 μg/plate
- toxicity to the bacteria (mean colony count) [5]: reduction in the mean colony count
- mutagenic effects (revertant numbers) [5]: absence of any mutagenic effects

SMILES: COc1cc(Nc2cc(Oc3ccc(NC(=O)Nc4cc(C(C)(C)C)cc(NS(C)(=O)=O)c4OC)c4ccccc34)ccn2)ccc1C(=O)O.Cl [Example 1, hydrochloride salt, 4-((4-((4-(3-(5-(tert-butyl)-2-methoxy-3-(methylsulfonamido)phenyl)ureido)naphthalen-1-yl)oxy)pyridin-2-yl)amino)-2-methoxybenzoic acid, hydrochloride salt]
- Purity (%) at week n = 2 ([3]; 1 mg/mL buffered solution stored at 5° C., 2 weeks, duplicate samples, hydrochloride salt): 98.0%
- Purity (%) at week n = 4 ([3]; 1 mg/mL buffered solution stored at 5° C., duplicate samples, hydrochloride salt): 98.0%
- Purity (%) at week n = 1 ([3]; 1 mg/mL buffered solution stored at 25° C., 1 week, duplicate samples): 98.0%

SMILES: COc1cc(Nc2cc(Oc3ccc(NC(=O)Nc4cc(C(C)(C)C)cc(NS(C)(=O)=O)c4OC)c4ccccc34)ccn2)ccc1C(=O)O [Example 1, sodium salt]
- Purity (%) at week n = 4 ([3]; 1 mg/mL buffered solution stored at 40° C., duplicate samples): 76.0%

SMILES: COc1cc(Nc2cc(Oc3ccc(NC(=O)Nc4cc(C(C)(C)C)cc(NS(C)(=O)=O)c4OC)c4ccccc34)ccn2)cc(OC)c1C(=O)NCCOCCOCCO [Example 36, 4-((4-((4-(3-(5-(tert-Butyl)-2-methoxy-3-(methylsulfonamido)phenyl)ureido)naphthalen-1-yl)oxy)pyridin-2-yl)amino)-N-(2-(2-(2-hydroxyethoxy)ethoxy)ethyl)-2,6-dimethoxybenzamide]
- KinomeScan Selectivity Score S(1) (non-mutant kinases; 50 nM): 0.002
- KinomeScan Selectivity Score S(10) (non-mutant kinases; 50 nM): 0.050
- KinomeScan Selectivity Score S(1) (non-mutant kinases; 500 nM): 0.079
- kinase selectivity compared to the Reference Compound (non-mutant kinases): improved selectivities

SMILES: COc1cc(Nc2cc(Oc3ccc(NC(=O)Nc4cc(C(C)(C)C)cc(NS(C)(=O)=O)c4OC)c4ccccc34)ccn2)ccc1P(C)(=O)O [Example 44, (4-((4-((4-(3-(5-(tert-Butyl)-2-methoxy-3-(methylsulfonamido)phenyl)ureido)naphthalen-1-yl)oxy)pyridin-2-yl)amino)-2-methoxyphenyl)(methyl)phosphinic acid]
- toxicity to the bacteria (mean colony count) ([2]; 5000 μg/plate, absence of S-9 mix): reduction in the mean colony count
- mutagenic effects (revertant numbers) [2]: absence of any mutagenic effects
- % Parent Remaining [6, 8]: 98%
- % Parent Remaining ([6]; time 0 min): 100%
- limit of solubility in the mutation test [5]: 5000 μg/plate
- toxicity to the bacteria (mean colony count) [5]: reduction in the mean colony count
- mutagenic effects (revertant numbers) [5]: absence of any mutagenic effects

SMILES: COc1cc(Nc2cc(Oc3ccc(NC(=O)Nc4cc(C(C)(C)C)cc(NS(C)(=O)=O)c4OC)c4ccccc34)ccn2)cc(OC)c1C(=O)NCCOCCOCCOP(=O)(O)O [Example 47, 2-(2-(2-(4-((4-((4-(3-(5-(tert-butyl)-2-methoxy-3-(methylsulfonamido)phenyl)ureido)-naphthalen-1-yl)oxy)pyridin-2-yl)amino)-2,6-dimethoxybenzamido)ethoxy)ethoxy)ethyl dihydrogen phosphate]
- % Parent Remaining [6, 8]: 89%
- % Parent Remaining ([6]; time 0 min): 100%
- KinomeScan Selectivity Score S(10) (non-mutant kinases; 50 nM): 0.042
- KinomeScan Selectivity Score S(1) (non-mutant kinases; 500 nM): 0.074
- kinase selectivity compared to the Reference Compound (non-mutant kinases): improved selectivities

SMILES: COc1cc(Nc2ncc(F)c(Nc3ccc4c(n3)N(COP(=O)(O)O)C(=O)C(C)(C)O4)n2)cc(OC)c1OC [Fostamatinib]
- clinical outcome and serum IL-6 and MMP-3 [7]: improved clinical outcome and reduced serum levels of IL-6 and MMP-3

SMILES: C#Cc1cc(Nc2nccc(Oc3ccc(NC(=O)Nc4cc(C(C)C)nn4-c4ccc(C)cc4)c4ccccc34)n2)cc(C(=O)NCCN2CCOCC2)c1 [Reference Compound B, 3-ethynyl-5-((4-((4-(3-(3-isopropyl-1-(p-tolyl)-1H-pyrazol-5-yl)ureido)naphthalen-1-yl)oxy)pyrimidin-2-yl)amino)-N-(2-morpholinoethyl)benzamide, reference compound]
- decomposition (hydrolytic stability) ([6]; DMSO and water (3:1), 60° C., 5 and 24 h): underwent substantial decomposition
- % Parent Remaining ([6]; 60° C., 5 h timepoint (297-317 min)): 79%
- % Parent Remaining [6, 8]: 18%
- % Parent Remaining ([6]; time 0 min): 100%

— patent publication US10392346B2, “Kinase inhibitors” (Topivert Pharma Limited, priority 2014, dated 2019)
